Measured values from a melting point compilation (Tetko et al.; mined from patent text by program, amines drawn as free bases though some values may be those of a salt).

Structure (SMILES)	melting point [°C]
COC(=O)c1ccccc1S(=O)(=O)NC(=O)N1NC(=O)N(O)C1OC (stereo not given)	180
O=c1cc(C(F)(F)F)cc(-c2ccc(C(F)(F)F)cc2)[nH]1	203 to 204
CN1CCC2(c3cccc(O)c3)CCCC2C1 (stereo not given)	151 to 153
CCOC(=O)C(=CNc1ccc(F)cc1F)C(=O)c1c(F)cc(Cl)c(F)c1Cl	84 to 86
CC(=O)SCC(CC(C)C)C(=O)Nc1cc(C)cc(C(=O)O)c1 (stereo not given)	185 to 187
O=C(O)c1cn(Cc2c(F)cccc2Cl)nn1	274 to 276
COC(=O)c1cc([N+](=O)[O-])cn1C	122 to 124
C=CCOc1ccc(C=Cc2ccc([N+](=O)[O-])cc2)cc1	114
CCc1ccc(-c2c3ccccc3c(-c3ccc(CC)cc3)c3cc(Cl)ccc23)cc1	214 to 216
Clc1cncc(Cl)c1CBr	40 to 44
CCCCCCCCCCc1cc(C=O)on1	46 to 48
O=[N+]([O-])c1cccc2c1nnn2C1CCCC(Cl)C1Cl (stereo not given)	145 to 148
CSC1(C)C(=O)Nc2ccc(C3=NNC(=O)SC3C)cc21 (stereo not given)	250
COc1ccc(C2=CCN(Cc3n[nH]c4c(F)c(F)ccc34)CC2)cc1	195 to 197
CC(=O)c1ccc2c(c1)C1(c3ccccc3-2)c2cc(C(C)=O)ccc2-c2ccc(C(C)=O)cc21	258 to 260
Cc1nc(C(=O)O)co1	> 250
Clc1nccc2[nH]cnc12	100 to 102
CN1C(C)(C#N)CCC1(C)C#N (stereo not given)	81 to 83
CN1C(=O)C(NC(=O)Nc2cccc(Cl)c2)N=C(c2ccccc2)c2ccccc21 (stereo not given)	178 to 180
CCCCc1c(CO)ccc2ccc(OC)cc12	52 to 53
Cc1nc2oc3c(c2c(=O)[nH]1)CCCC3	> 300
CN1Sc2sccc2C=C1CN1CCOCC1	104 to 106
CON(C)S(=O)(=O)NC(=O)Nc1nc(C)cc(C)n1	152
Cc1oc(-c2ccco2)nc1COc1ccc(CCl)cn1	95 to 96
CNC(Cc1ccccc1N)c1ccncc1 (stereo not given)	69 to 71
N#CCCCN1CC=C(c2ccccc2)CC1	57 to 59
CC(C)(C)OOC(C)(CCC(=O)NNC(=O)c1ccccc1)OOC(C)(C)C	147 to 149

Structure (SMILES)	melting point [°C]
COc1cc(OC)c2c(=O)[nH]c(-c3cc(C)c(OCCN(C)C)c(C)c3)cc2c1	261 to 263
COc1cc2ncnc(-c3nnn[nH]3)c2cc1OC	207
CC(=O)SCCC(=O)N1C(C(=O)O)CC2CCCCC21 (stereo not given)	131 to 133
CCOc1cc(OCC)c2c(C)c(CCO)c(=O)oc2c1	117 to 119
Clc1nc(-c2cccnc2)[nH]c1Cl	237 to 238
Nc1ccc2c(c1Br)COC2=O	176 to 180
CC1=Nc2cc3c(cc2C1(C)C)N=C(C)C3(C)C	190 to 195
O=C1N=C(N2CCOCC2)SC1=Cc1cc(-c2ccccc2)cc(-c2ccc(O)c(C34CC5CC(CC(C5)C3)C4)c2)c1	315 to 320
CC(C)CC(C(=O)O)N(C)C(C)C (stereo not given)	159 to 160
CCCCN(CCCC12CC3CC(CC(C3)C1)C2)C(=O)NCCCc1ccncc1	79.8 to 80.4
Cc1cc(N2C(=O)NC(C)(C)C2=O)ccc1[N+](=O)[O-]	177 to 178
CN1CC(N(C)[C@@H]2c3cc(C#N)ccc3OC(C)(C)[C@H]2O)=CC1=O (relative stereo)	266 to 269
Cc1cc([N+](=O)[O-])ccc1NCC1CCCO1 (stereo not given)	56 to 58
NC(=O)C(O)c1ccsc1 (stereo not given)	114 to 120
CSCCN(c1ccc(Cl)cc1[N+](=O)[O-])S(=O)(=O)c1ccc(C)cc1	94.5 to 95.5
CC(C)c1ncc(CN2C(=O)C3(COc4cc5c(cc43)OCO5)c3ccccc32)o1 (stereo not given)	75 to 77
COc1c(N2CC3CC3(CN)C2)c(F)cc2c(=O)c(C(=O)O)cn(C3CC3)c12 (stereo not given)	194 to 196
CN(C)C1(c2ccccc2)CCC2(OCCc3c2[nH]c2ccccc32)C(CCO)C1 (stereo not given)	311 to 314
COC(=O)c1ccc(Cl)c(Cl)c1NS(C)(=O)=O	100 to 102
CCCCNCP(=O)(O)O	236 to 240
CSc1ncc(C2=NCC(C)(C)O2)cc1Cl	113 to 115
COc1c([N+](=O)[O-])cc(C#N)c(F)c1O	112 to 113
Nc1ncc(Cl)cc1O	196 to 201
COC(=O)c1ccc(CC(C)NCC(O)c2ccc(O)c(NS(C)(=O)=O)c2)cc1 (stereo not given)	133 to 140
Cc1cc2n(C)c(=O)c3cnccc3n2n1	> 300
CC1SC(=O)NN=C1c1ccc2c(c1)C1(CCCS1)C(=O)N2 (stereo not given)	205
Clc1nc(C(Cl)Cl)c(Cl)s1	42 to 44

Now from value to compound:

melting point [°C]	Structure (SMILES)
146 to 147	COc1ccc2c(c1)C(c1ccccc1)NC(=S)N2CC1CC1 (stereo not given)
142 to 143	O=C(Cn1cnc(-c2ccc(OCc3ccccc3)cc2)n1)c1ccc(F)cc1F
119 to 122	O=S1CCc2nn(-c3ccc(Cl)cc3F)c(Cl)c2C1 (stereo not given)
162	CC#CCOc1cc(Oc2ccc(C#N)cc2)ncn1
244	COc1cc(N)c(C(N)=O)cc1C(=O)N[C@H]1CCN(Cc2ccc(F)cc2)C[C@H]1OC (relative stereo)
129 to 130	O=C1c2ccc(OCCn3ccnc3)cc2CCC1Cc1ccc(Br)cc1 (stereo not given)
206 to 207	CCN(c1cccc2cc(C3=NCCS3)[nH]c12)S(=O)(=O)c1cccs1
217 to 218	Cn1nc(-c2ccccc2)c2cccc(NS(C)(=O)=O)c2c1=O
133 to 134	O=C(CCC(=O)N1CCC(c2ccc(Cl)cc2)CC1)c1ccc2c(c1)CCN(Cc1ccccc1)CC2
134 to 136	Cc1cc(NCC(=O)N(C)c2ccccc2)nc(-c2ccccc2)n1
140 to 144	N#CCc1cccc(-c2ccc(OCCCC(=O)NO)cc2)c1
179 to 182	COc1ccc(C(Cc2ccncc2)c2ccc(CO)cc2)cc1OC1CCCC1 (stereo not given)
219 to 220	NC(=O)/C=C/c1ccc(C(c2cc(F)ccc2F)S(=O)(=O)c2ccc(Cl)cc2)nc1 (stereo not given)
81.5 to 83	CCCC/C(=C\C=C\C(=O)Oc1ccc([N+](=O)[O-])cc1)c1cccc(OC)c1
187 to 190	O=C(O)c1cn2c(-c3ccccc3)ncc2c2ccccc12
165 to 170	O=C(Nc1cccc(-c2ccnc3c(C(=O)c4cccs4)cnn23)c1)c1cn[nH]c1
284 to 286	O=C(c1ccoc1)c1cccc(-c2c(O)c3ccc(Cl)cc3[nH]c2=O)c1
167	O=C(NC1Cc2ccc([N+](=O)[O-])cc2C1)c1ccc(F)cc1 (stereo not given)
139 to 140	CCOC(=O)c1cn(CCc2ccccc2)c2occc2c1=O
102	OCc1ccc(Cc2ccccc2CO)cc1
39 to 42	COc1cccc(SCCC(=O)O)c1
226 to 227	O=C(O)C1=C(c2ccccc2)c2cc(Cl)ccc2OC1CC(F)(F)F (stereo not given)
> 250	O=C(O)c1[nH]c2cc(Cl)cc(Cl)c2c1C=C1CC(=O)N(c2ccccc2)C1=O
80 to 82	CC(=O)Oc1ccccc1C(=O)NC1CCN(CCCOc2ccccc2C#N)CC1
68 to 76	COC(=O)Cc1ccc(OCCNC(=O)C2Cc3ccccc3N2S(=O)(=O)c2ccc(-c3ccc(F)cc3)cc2)c(Cl)c1 (stereo not given)
197 to 199	O=C(NCc1c(Cl)cccc1Oc1ccccc1)C1CCc2[nH]cnc2C1 (stereo not given)

melting point [°C]	Structure (SMILES)
113	COC(=O)C1=C(C(=O)OC)c2c(c3ccccc3n2C)CC1
128 to 129	O=S(=O)(NCCCN1CCC(Oc2ccc(F)c(F)c2)CC1)c1ccc(-c2ccccn2)s1
295 to 300	Cc1ccc2c(c1)C(O)(c1ccccc1Cl)C(=O)N2 (stereo not given)
63	c1ccc2nc(C3CCCS3)ccc2c1 (stereo not given)
> 300	O=c1[nH]c2ccc3c(c2n(Cc2ccccc2)c1=O)CCCN3
147 to 149	CCN(CC)Cc1ccnc(F)c1CNC(=O)c1cnc2cc(I)ccc2n1
295 to 296	CCCc1nc2ccc(C(=O)c3ccccc3)cc2n1Cc1ccc(C(=O)O)cc1
122 to 124	COC(=O)COc1ccc(SCc2ccc(-c3ccc(C(F)(F)F)cc3)cc2)c2c1CCCO2
177 to 179	CCC1c2cccn2-c2cc(F)c(F)cc2N1S(=O)(=O)c1ccc(O)cc1 (stereo not given)
262 to 264	O=C1CCC(N2Cc3cc(CNC(=O)Nc4ccc(F)cc4)ccc3C2=O)C(=O)N1 (stereo not given)
288	C[C@@H](c1ccc(F)cc1)N1CCN(c2cc(Oc3cc(F)cc4[nH]c(=O)c(N)nc34)ncn2)CC1
187 to 188	Clc1cc(Cl)c2cccc3c2c1N=C3NCCCCn1ccnc1
173 to 175	COc1ccc(C(=O)N2c3ccccc3C(n3c4ccccc4c4ccccc43)CC2CCCCCN(C)C(C)=O)cc1OC (stereo not given)
78 to 79	COc1ccccc1N1CCC(CNC[C@H]2COc3ccccc3O2)CC1
224 to 226	CN(c1cccc2cc(-c3ncc(CCC(=O)NN)s3)[nH]c12)S(=O)(=O)c1cccs1
203 to 205	O=C(Nc1ccccc1)c1cn(-c2ccccc2)c2ccccc2c1=O
140 to 142	C#CC1C2=C(C(=O)CCC2)c2ccc(OC(=O)C(C)(C)C)cc2N1C(=O)Oc1ccccc1 (stereo not given)
220 to 222	O=C(O)Cc1c(Cl)nc(-c2cccc(O)c2)n1Cc1ccccc1
238 to 241	O=C(O)c1cn2c3c(cccc3c1=O)C1CCCCC12 (stereo not given)
232 to 235	CC1(C)CC(=O)c2c(NC3CC3)sc(-c3cc[nH]n3)c2C1
179 to 181	O=c1[nH]c2ccc(S(=O)CCN3CCC(Cc4ccccc4F)CC3)cc2o1 (stereo not given)
203	O=C1NC(=O)C(c2c[nH]c3cc(F)ccc23)=C1C1=COc2ccccc2O1
75 to 77	COC(=O)c1ccc(SCc2cccc(Cl)c2)cn1
115 to 116	CN1CCN(C(=O)c2ccc(CCc3cc4cc(C#N)ccc4o3)cc2)CC1
83 to 86	OC(CCc1cccnc1)COc1ccc(-c2ccccc2)cc1 (stereo not given)
